Assay results from US20020166134A1, “Cardiomyocytes with enhanced proliferative potenial, and methods for preparing and using same” (priority 1999, published 2002).

Columns and labels:
[1] = test system: cardiomyocytes; assay: Tritiated thymidine incorporation assay of cardiomyocyte DNA synthesis (labeling index) in adult transgenic mice, with or without isoproterenol infusion; format: in vivo; conditions: for Left Atrium cardiomyocyte labeling index / Right Atrium cardiomyocyte labeling index / Ventricle cardiomyocyte labeling index: isoproterenol infusion 7 days
Text: A thymidine incorporation assay was used to determine if cardiomyocyte DNA synthesis persisted in adult transgenic MCH-CYCD2 animals. This testing also employed a second transgenic mouse line, designated MHC-nLAC. The MCH-nLAC mice express a nuclear localized β-galactosidase (βGAL) reporter gene exclusively in the cardiomyocytes (Soonpaa, M. H. et al., Science 264:98-101 (1994); Soonpaa, M. H. and L. J. Field, Am. J. Physiol. 272:H220-226 (1997)). Accurate cardiomyocyte tritiated thymidine labeling indices can be readily obtained with the MHC-nLAC animals simply by screening for co-localization of βGAL activity and silver grains in autoradiographs of 5-bromo-4-chloro-3-indolyl-B-D-galactoside (X-GAL) stained heart sections. To monitor the effect of cyclin D2 overexpression on cardiomyocyte DNA synthesis, MHC-CYCD2 mice were crossed with MHC-nLAC mice and animals carrying either the MHC-nLAC transgene alone or both transgenes were identified and sequestered. When the mice reached 11 weeks of age, they received a single injection of tritiated thymidine and were sacrificed four hours later. The hearts were removed, sectioned, stained with X-GAL and processed for autoradiography. […] In light of the sustained cardiomyocyte DNA synthesis observed in the adult MHC-CYCD2 mouse hearts, a series of experiments was initiated to ascertain how the transgenic myocardium would respond to cardiac hypertrophy. Osmotic mini-pumps (Model 2001, Alzet, Palo Alto, Calif., flow rate of 1 μl per hour) filled with saline or 0.028 g/ml isoproterenol in saline were implanted through a small longitudinal incision between the scapulae. 8 control mice (MHC-nLAC) and 8 cyclin D2 mice (MHC-nLAC/MHC-CYCD2 double transgenics) were used.
Prior to sacrifice, the experimental and control mice received a bolus injection of tritiated thymidine to permit assessment of cardiomyocyte DNA synthesis. After a 4 hour chase, the animals were sacrificed, and the hearts were harvested, cryoprotected, sectioned, stained with X-GAL and subjected to autoradiography. Once again, cardiomyocyte DNA synthesis was measured by scoring the presence of silver grains over βGAL positive nuclei. […] Isoproterenol treatment had no effect on cardiomyocyte DNA synthesis in the non-cyclin expressing control group.
Pulse chase experiments were employed to determine the fate of the cardiomyocytes synthesizing DNA. Once again, MHC-CYCD2 mice were crossed with MHC-nLAC mice. The MHC-nLAC mice express a nuclear localized β-GAL reporter exclusively in cardiomyocytes. Mice from this cross carrying either the MHC-nLAC transgene alone or both the MHC-nLAC and MHC-CYCD2 transgenes were identified and sequestered. At 11 weeks of age, myocardial hypertrophy was induced by isoproterenol infusion with Alzet minipumps (minipump model 2001, Alzet, Palo Alto Calif.; flow rate of 1 μl/hr, 0.028 g/ml isoproterenol). After 7 days of isoproterenol infusion, the control (MHC-nLAC) and experimental (MHC-nLAC/MHC-CYCD2 double transgenic) mice received a single injection of 3H-thymidine (200 uCi I.P. at 28 Ci/mM, Amersham, Arlington Heights, Ill.), and were sacrificed either 4 hours (pulse, FIG. 3A) or 72 hours (chase, FIG. 3B) later. The hearts were removed, cryoprotected in 30% sucrose, embedded and sectioned at 10 μm using standard histologic techniques. The sections were post-fixed in formaldehyde:glutaraldehyde (1:1) and overlaid with 1 mg/ml X-GAL, 5 mM potassium ferricyanide, 5 mM potassium ferrocyanide and 2 mM magnesium chloride in PBS. The sections were counter-stained with DAPI, and washed three times in PBS. After drying, stained slides were coated with photographic emulsion (Ilford L.4, Polysciences, Warrington Pa.) diluted 1:1 with water, drained, and placed in a light-tight box for four days at 4° C. Slides were then developed in Kodak D-19 (Rochester N.Y.) for four minutes, washed in water, and fixed in 30% sodium thiosulfate for at least four minutes. […]

[2] = Heart weight/body weight; format: in vivo, mice
Text: A thymidine incorporation assay was used to determine if cardiomyocyte DNA synthesis persisted in adult transgenic MCH-CYCD2 animals. This testing also employed a second transgenic mouse line, designated MHC-nLAC. The MCH-nLAC mice express a nuclear localized β-galactosidase (βGAL) reporter gene exclusively in the cardiomyocytes (Soonpaa, M. H. et al., Science 264:98-101 (1994); Soonpaa, M. H. and L. J. Field, Am. J. Physiol. 272:H220-226 (1997)). Accurate cardiomyocyte tritiated thymidine labeling indices can be readily obtained with the MHC-nLAC animals simply by screening for co-localization of βGAL activity and silver grains in autoradiographs of 5-bromo-4-chloro-3-indolyl-B-D-galactoside (X-GAL) stained heart sections. To monitor the effect of cyclin D2 overexpression on cardiomyocyte DNA synthesis, MHC-CYCD2 mice were crossed with MHC-nLAC mice and animals carrying either the MHC-nLAC transgene alone or both transgenes were identified and sequestered. When the mice reached 11 weeks of age, they received a single injection of tritiated thymidine and were sacrificed four hours later. The hearts were removed, sectioned, stained with X-GAL and processed for autoradiography. […]

[3] = test system: cell cycle protein; assay: Western blot analysis of cell cycle protein level changes in response to isoproterenol; format: in vivo, mice; set-up: key to Cyclin D2 protein level: higher numbers of the symbol “+” indicate higher levels of protein; the symbol “−” indicates none detected; conditions: 7 days infusion
Procedure: Western blots were used to analyze protein expression levels in adult MHC-CYCD2 mice and their non-transgenic litter mates. Hearts were homogenized in NP40 buffer (150 mM NaCl, 5 mM EDTA, 50 mM Tris-HCl pH 8.0, 1 μg/ml aprotinin, 1 μg/ml pepstatin, 1 μg/ml leupeptin, 50 μg/ml TLCK, 50 μg/ml PMSF, 100 μg/ml TPCK, 1% vol/vol Nonidet P-40). The homogenate was cleared by centrifugation at 40,000× g for 10 min, and the protein content of the supernatant was quantitated using a commercial assay (Bio-Rad, Richmond Calif.). Samples were separated by size on 10% polyacrylamide gels under denaturing conditions as described, and electro-blotted to nitrocellulose (Hoefer Scientific, San Francisco Calif.) membranes. The filters were stained with 0.1% naphthol blue-black in 45% methanol, 10% acetic acid to assess the efficiency of transfer. For Western analysis, nonspecific binding was blocked by incubation in block buffer (5% nonfat dry milk, 3% BSA, 0.1% Tween, 1×PBS) for 2 hr at room temperature. Commercial antibodies were used for each protein analyzed. Conditions (i.e. dilution, length of reaction, secondary antibody, etc) were according to the manufacturer's recommendations. The results are presented in Table 4 below, in which higher numbers of the symbol “+” indicate higher levels of protein, and the symbol “−” indicates none detected.
Myocardial hypertrophy was induced by isoproterenol infusion with Alzet minipumps in adult MHC-CYCD2 mice and their non-transgenic siblings (minipump model 2001, Alzet, Palo Alto Calif.; flow rate of 1 μl/hr, 0.028 g/ml isoproterenol). Hearts were harvested after 7 days of isoproterenol infusion and processed for Western blot analysis using procedures as described in Example 4. Again, higher numbers of the symbol “+” indicate higher levels of protein, and the symbol “−” indicates none detected.

[4] = test system: cardiomyocytes from the left atria of MHC-CYCD2 transgenic mice; assay: Number of cardiomyocyte nuclei (kariokinesis) in left atrial cultures with isoproterenol; format: cell-based; conditions: isoproterenol 1 μm, 72 hrs, left atria of day 14 MHC-CYCD2 mice, FIG. 5
Procedure: Left atria from neonatal day 14 MHC-CYCD2 transgenic mice were harvested and digested in PBS (37° C., 60 min) containing 0.17% collagenase (Type I, Worthington Biochemical, Freehold N.J.). Cells were then triturated with a Pasteur pipette and plated at a density of 1×10^5 cells per chamber slide. Cells were cultured in DMEM supplemented with 10% FBS. In some cases, the media also contained isoproterenol (1 μm). After 72 hrs., the slides were fixed in gluteraldehyde-formaldehyde (1:1) and overlaid with 1 mg/ml X-GAL, 5 mM potassium ferricyanide, 5 mM potassium ferrocyanide and 2 mM magnesium chloride in PBS. The number of blue nuclei were counted directly on a microscope.

[5] = Control mice, isoproterenol treated 7 days
[6] = MHC-CYCD2 mice, listed as Isoproterenol

CC(C)NCC(O)c1ccc(O)c(O)c1 (centres unmarked) [isoproterenol]
Left Atrium cardiomyocyte labeling index ([1]; Control (MHC-nLAC) mice): 0% | Right Atrium cardiomyocyte labeling index ([1]; Control (MHC-nLAC) mice): 0% | Ventricle cardiomyocyte labeling index ([1]; Control (MHC-nLAC) mice): 0% | Left Atrial DNA Synth. (%) Iso(7 days) [1, 5]: 0.00% | Ventricular DNA Synth. (%) Iso(7 days) [1, 5]: 0.00% | Left Atrium cardiomyocyte labeling index ([1]; MHC-CYCD2 mice): 7.28% | Ventricle cardiomyocyte labeling index ([1]; MHC-CYCD2 mice): moderately decreased | Left Atrium cardiomyocyte labeling index [1, 6]: 7.28% | Right Atrium cardiomyocyte labeling index [1, 6]: 0.29% | Ventricle cardiomyocyte labeling index [1, 6]: 0.11% | effect on cardiomyocyte DNA synthesis ([1]; non-cyclin expressing control group, isoproterenol treatment): no effect | increase in heart weight/body weight ([2]; control mice, isoproterenol vs saline treated animals): 28% | increase in heart weight/body weight ([2]; cyclin expressing mice, continuous isoproterenol 7 days): 47.6% | CDC2 protein level ([3]; NonTransgenic (+Iso)): + + | Cyclin D2 protein level ([3]; NonTransgenic (+Iso)): + | PCNA protein level ([3]; NonTransgenic (+Iso)): + + | CDC2 protein level ([3]; Transgenic (+Iso)): + + + + | Cyclin D2 protein level ([3]; Transgenic (+Iso)): + + + + + | PCNA protein level ([3]; Transgenic (+Iso)): + + + + | number of cardiomyocyte nuclei in the culture [4]: substantial increase
